{"source": "patent US20060210504A1", "about": "“Compositions and methods for inhibiting eccrine perspiration in humans” (priority 2001, published 2006)", "key": {"[1]": {"test_system": "healthy female volunteers", "experiment": "Safety and tolerance assessment on topical application to the axilla", "type": "in vivo, human", "experimental": "(§1) The antiperspirant efficacy and safety of glycopyrrolate, a quaternary ammonium salt, was tested pursuant to protocol prescribed by the Food and Drug Administration, 21CFR Part 10.90 The OTC Antiperspirant Tentative Final Monograph. So as to separate vehicle from drug effects, glycopyrrolate was presented as a simple solution in varying concentrations of 0.3%, 1% and 3% weight per volume. In each treatment group as listed below, the glycopyrrolate solution and a placebo of distilled water were applied to the axilla of healthy female volunteers. In particular, the placebo was applied to one armpit while the test solution was applied to the other armpit of a given volunteer. The designation of armpits (namely, right or left) for the application of placebo vs. solution was randomized according to the FDA protocol. In the placebo Group B, distilled water was applied to both axilla of each volunteer. Treatments were applied once daily for five consecutive days.\n(§2) The clinical study was conducted among 37 healthy female volunteers. The testing further conformed to ICH guidelines and the requirements of the 1964 Declaration of Helsinki and its subsequent amendments. The study was a pilot, single-center, randomized, controlled, double-blind assessment of the safety, tolerability and antiperspirant efficacy of glycopyrrolate when applied to the axilla of healthy female volunteers.\n(§3) The antiperspirant efficacy evaluation was performed approximately one hour after the fifth treatment using a standard hot room protocol. Safety and tolerance were measured by assessment of blood chemistry and hematology, electrocardiograms, daily monitoring of heart rate, blood pressure and body temperature, assessment of visual effects and dermal irritancy, and subjective assessment of tolerance."}, "[2]": {"test_system": "sweat production in the axilla (eccrine sweat glands)", "experiment": "Antiperspirant efficacy evaluation, standard hot room protocol (FDA OTC Antiperspirant Tentative Final Monograph)", "type": "in vivo, human (healthy female volunteers)", "settings": "for mean reduction in sweat production: axilla, once daily for five days, about one hour after fifth treatment", "experimental": "as §1\nThe groups comprised the following: • Group A—0.3% glycopyrrolate versus distilled water; • Group B—Placebo (distilled water applied to both axilla); • Group C—1% glycopyrrolate versus distilled water; • Group D—3% glycopyrrolate versus distilled water;\nas §2\nThe study was conducted in two cohorts of volunteers. The first cohort comprised fourteen (14) subjects, with […] subjects assigned to placebo Group B and ten (10) subjects assigned to 0.3% Group A.\nNine (9) days following the completion of the first cohort, a second cohort of twenty-three (23) subjects were tested, with three (3) subjects assigned to placebo Group B, ten (10) subjects assigned to 1% Group C, and ten (10) subjects assigned to 3% Group D.\nas §3"}, "[3]": {"settings": "0.3%, 1% and 3% w/v topical to axilla, once daily for five days"}, "[4]": {"settings": "1% w/v simple solution (Group C) vs distilled water"}, "[5]": {"settings": "3% w/v simple solution (Group D) vs distilled water"}}, "data": [{"molecule": "C[N+]1(C)CCC(OC(=O)C(O)(c2ccccc2)C2CCCC2)C1", "note": "(stereo not drawn) [glycopyrrolate]", "values": [{"measurement": "pupillary dilation or other systemic symptoms of anticholinergic agents", "setting": "[1]; [3]", "value": "no signs of pupillary dilation or other systemic symptoms"}, {"measurement": "serious adverse events", "setting": "[1]; [3]", "value": "No serious adverse events"}, {"measurement": "adverse events, clinical significance", "setting": "[1]; reviewed by principal investigator and attendant cardiologist", "value": "clinically non-significant"}, {"measurement": "antiperspirant efficacy in words", "setting": "[2]; 0.3% concentration", "value": "essentially ineffective"}, {"measurement": "inhibition enjoyed by two subjects", "setting": "[2]; 0.3% concentration, two subjects", "value": 0.50, "unit": "% inhibition"}, {"measurement": "statistical significance of reduction in sweat production", "setting": "[2]; 0.3% w/v simple solution (Group A) vs distilled water", "value": "no statistically significant reduction in sweat production"}, {"measurement": "binomial criteria of 95% confidence with at least 50% of the population showing at least 20% reduction in sweating", "setting": "[2]; 1% group", "value": "met the binomial criteria"}, {"measurement": "range of effect (inhibition of sweating across subjects)", "setting": "[2]; 1% treatment group", "value": "−16-to 54 % inhibition"}, {"measurement": "statistical significance of reduction in sweat production", "setting": "[2]; [4]", "value": "significant sweat reduction"}, {"measurement": "mean reduction in sweat production", "setting": "[2]; [4]", "value": "32.85%±9.81"}, {"measurement": "binomial criteria of 95% confidence with at least 50% of the population showing at least 20% reduction in sweating", "setting": "[2]; 3% group", "value": "met the binomial criteria"}, {"measurement": "range of effect (inhibition of sweating across subjects)", "setting": "[2]; 3% treatment group", "value": "−13 to 90", "unit": "% inhibition"}, {"measurement": "statistical significance of reduction in sweat production", "setting": "[2]; [5]", "value": "significant sweat reduction"}, {"measurement": "mean reduction in sweat production", "setting": "[2]; [5]", "value": "54.72%±20.23"}, {"measurement": "dose dependence of antiperspirant effect", "setting": "[2]; simple solution, 0.3%, 1% and 3%, highest efficacy at 3%", "value": "dose-dependent antiperspirant effect"}]}]}
